Assay [1] deals with T1, p300TAZ2 (TAZ2 domain of p300) (Homo sapiens, UniProt Q09472, A1723W).
T1 construct: Human p300TAZ2 [aa 1722–1812, pGEX-4T-1 vector with an additional tobacco etch virus (TEV) cleavage site]; GST (pGEX-4T-1, TEV site) (N, cleaved yes); made in house; host or cells: Escherichia coli Rosetta-2 (DE3) pLysS
T1 sequence (Q09472 1722-1812 A1723W): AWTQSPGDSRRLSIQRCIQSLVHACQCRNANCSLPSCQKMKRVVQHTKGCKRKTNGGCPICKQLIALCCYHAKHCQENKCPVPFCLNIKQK
Briefly: Microscale thermophoresis (MST) binding of p300TAZ2-His to EZH2 TAD peptides. The following applies: direct binding, p300TAZ2-6×His labeled RED-tris-NTA, 10 nM; 25 mM Tris pH 7.5, 150 mM NaCl, 2.5 mM DTT; 1:1 stoichiometry; average ± SD of three (EZH2TAD2, EZH2TAD3) or four (EZH2TAD1) independent measurements.
Protocol: After induction with isopropyl b-D-1-thiogalactopyranoside (IPTG), harvesting, and lysis in buffer [50 mM Tris pH 7.0, 1 M NaCl, 5 mM dithiothreitol (DTT), 1 mM phenylmethanesulfonylfluoride (PMSF) and DNase] by sonication, the proteins were purified on glutathione agarose beads (Pierce) and eluted with buffer containing reduced L-glutathione (Fisher). The GST tag was either cleaved with TEV protease overnight at 22°C or kept intact during subsequent purification steps. Both GST- and His-tagged proteins, as well as untagged p300TAZ2, were further purified by cation exchange (HiTrap SP HP, Cytiva) or heparin affinity chromatography (HiTrap Heparin HP, Cytiva).
MST experiments were carried out on a Monolith NT.115 instrument (NanoTemper). All experiments were performed using SEC-purified p300TAZ2-6×His protein in 25 mM Tris pH 7.5 buffer, 150 mM NaCl, and 2.5 mM DTT. p300TAZ2-6×His was labeled using a His-Tag Labeling Kit RED-tris-NTA (2nd Generation, NanoTemper) and kept constant at 10 nM. Dissociation constants were determined using a direct binding assay in which peptide was varied in concentration by serial dilution of discrete samples. The measurements were performed at 50% LED and medium MST power with 3-s pre-laser time, 20-s laser on-time, and 1-s off-time.

The test system of assay [2] is FLAG-HA-tagged p300 catalytic core (aa 1035–1830 of p300). Briefly: Histone acetyltransferase (HAT) assay, Western blot, recombinant nucleosome substrate. It counts as biochemical. As to conditions: 1 μg p300 core, 2.5, 5 or 10 μg GST-tagged TADs, 1 μg nucleosome, 100 mM acetyl-CoA, 50 mM Tris-HCl pH 8.0, 30°C, 15 min. The procedure: Histone acetyltransferase assay
For HAT assays, FLAG-HA-tagged p300 core (aa 1035–1830 of p300) in a pCDH vector was expressed in 293 T cells for two days. Cells were lysed in lysis buffer (50 mM Tris-HCl pH 7.5, 300 mM NaCl, 1.5 mM MgCl2, 1 mM EDTA, 1% Triton100, 10% glycerol, 1 mM PMSF, and protease inhibitors) and sonicated. Cell lysates were incubated with anti-Flag M2 beads (Sigma) at 4° for 4 h. The beads were then washed three times with buffer (50 mM Tris-HCl pH 7.5, 500 mM NaCl, 1.5 mM MgCl2, 0.2 mM EDTA, 0.1% NP40, 10% glycerol, and 1 mM PMSF), and the protein was eluted with elution buffer (50 mM Tris-HCl pH 7.5, 300 mM NaCl, 1 mM DTT, 10% glycerol, and 0.4 mg/ml Flag peptide). […]
Purified FLAG-HA-tagged p300 catalytic core fragment (1 μg) was incubated with increasing amounts of GST-tagged EZH2TADs and GST-tagged EZH1TADs (2.5, 5, or 10 μg) and the nucleosome (1 μg) in HAT reaction buffer (50 mM Tris-HCl pH 8.0, 100 mM NaCl, 10% glycerol, 1 mM DTT, […], and 1× cOmplete EDTA-free Protease Inhibitor Cocktail) at 30°C for 15 min. Reactions were stopped by boiling at 95°C for 5 min in 2×SDS loading buffer, and samples were analyzed by SDS-PAGE and Western blot. […]
On the technique in general: A western blot detects proteins with antibodies after separation by electrophoresis.

Another assay deals with GST-p300TAZ2. The experiment in a line: Mass photometry (MP) of GST-p300TAZ2 with EZH2TAD constructs. It counts as binding, human. Here is the method: [37]. […] After induction with isopropyl b-D-1-thiogalactopyranoside (IPTG), harvesting, and lysis in buffer [50 mM Tris pH 7.0, 1 M NaCl, 5 mM dithiothreitol (DTT), 1 mM phenylmethanesulfonylfluoride (PMSF) and DNase] by sonication, the proteins were purified on glutathione agarose beads (Pierce) and eluted with buffer containing reduced L-glutathione (Fisher). The GST tag was either cleaved with TEV protease overnight at 22°C or kept intact during subsequent purification steps. […] The EZH2TAD1 ([…]) construct was generated by deletion using Q5 Hot Start High-Fidelity kit (NEB) and confirmed by DNA sequencing. Both constructs were expressed in E. coli Rosetta-2 (DE3) pLysS cells grown in LB media and induced at an OD600 of 0.6-0.8 with 1 mM IPTG for 16 h at 16°C. Cells were harvested by centrifugation, suspended in buffer (50 mM Tris pH 7.5, 500 mM NaCl, 1% CHAPS, 2 mM DTT, 1 mM PMSF, Roche cOmplete Protease Inhibitor Cocktail, and DNase), and lysed by sonication. […] When necessary, EZH2TAD constructs were further purified using a Superdex 200 Increase 10/300 GL column (Cytiva) with monitoring at 205 and 280 nm. […] To overcome the minimum size limit, a GST-fusion construct was used for one of the components in each sample. […] Ten microliter of each sample was loaded into the sample wells of the silicon cassettes assembled onto MassGlass UC coverslips (Refeyn, Ltd.). […]

The subject of the next assay is p300TAZ2. Briefly: Mass photometry (MP) of GST-EZH2TAD1 with p300TAZ2. It counts as binding, human. Here is the method: [37]. Briefly, both ^15N-labeled and unlabeled constructs were expressed in Escherichia coli Rosetta-2 (DE3) pLysS cells grown in either M9 minimal media or TB, both supplemented with 50-150 μM ZnCl2. After induction with isopropyl b-D-1-thiogalactopyranoside (IPTG), harvesting, and lysis in buffer [50 mM Tris pH 7.0, 1 M NaCl, 5 mM dithiothreitol (DTT), 1 mM phenylmethanesulfonylfluoride (PMSF) and DNase] by sonication, the proteins were purified on glutathione agarose beads (Pierce) and eluted with buffer containing reduced L-glutathione (Fisher). The GST tag was either cleaved with TEV protease overnight at 22°C or kept intact during subsequent purification steps. […] Human EZH2[…]3 ([…]) construct with a C-terminal 6×His tag was cloned into a pGEX-6P-1 vector (GenScript). The EZH2TAD1 ([…]) construct was generated by deletion using Q5 Hot Start High-Fidelity kit (NEB) and confirmed by DNA sequencing. Both constructs were expressed in E. coli Rosetta-2 (DE3) pLysS cells grown in LB media and induced at an OD600 of 0.6-0.8 with 1 mM IPTG for 16 h at 16°C. Cells were harvested by centrifugation, suspended in buffer (50 mM Tris pH 7.5, 500 mM NaCl, 1% CHAPS, 2 mM DTT, 1 mM PMSF, Roche cOmplete Protease Inhibitor Cocktail, and DNase), and lysed by sonication. […] When necessary, EZH2TAD constructs were further purified using a Superdex 200 Increase 10/300 GL column (Cytiva) with monitoring at 205 and 280 nm. Mass Photometry […] To overcome the minimum size limit, a GST-fusion construct was used for one of the components in each sample. […] Ten microliter of each sample was loaded into the sample wells of the silicon cassettes assembled onto MassGlass UC coverslips (Refeyn, Ltd.). Measurements were performed at room temperature in buffer (50 mM Tris pH 7.5, 150 mM NaCl, 5 mM DTT). β-amylase was used as calibration standard (56 kDa, 112 kDa, and 224 kDa). After the focus was set and locked, movies were captured for 60 s (2800 frames) using AcquireMP software (Refeyn Ltd). Data were processed using DiscoverMP (Refeyn Ltd).

No end group written: not given here.

Broadly, the Kd is the free concentration of one partner at which half of the binding sites on the other are occupied at equilibrium, for simple one-to-one binding. Read a high Kd as lower affinity.

Take DGTFIEELIKNYD [EZH2TAD1]: in assay [1], binding was put at a Kd of 530 ± 80 nM. Consider “EZH2 WT: GST-tagged EZH2TAD1-TAD2-TAD3 (aa 119–267)”, for which the “H3K18 acetylation by p300 core” value in assay [2] (H3K18ac Western blot) was “dose-dependent increase in H3K18 and H3K27 acetylation”. For the same substance, in assay [2] (H3K27ac Western blot), the “H3K27 acetylation by p300 core” value is “dose-dependent increase in H3K18 and H3K27 acetylation”. In the case of “EZH2TAD1-TAD2-TAD3: recombinant human EZH2 aa 142–231 construct with a C-terminal 6×His tag, used in mass photometry”, the “MP peak of complex with GST-p300TAZ2” value in the assay on GST-p300TAZ2 (20 nM GST-p300TAZ2 + 1 μM EZH2TAD1-TAD2-TAD3, room temperature, 50 mM Tris pH 7.5, 150 mM NaCl, 5 mM DTT) was ~ 224 kDa. For the same substance, the “stoichiometry of the complex with GST-p300TAZ2” value in the assay on GST-p300TAZ2 (from MP peak, 20 nM GST-p300TAZ2, EZH2TAD1-TAD2 5 μM or EZH2TAD1-TAD2-TAD3 1 μM) was “six molecules of GST-p300TAZ2 and one molecule of EZH2TAD1-TAD2-TAD3”. On to “GST-EZH2TAD1: recombinant GST-tagged EZH2TAD1 (aa 142–160) construct (DGTFIEELIKNYDGKVHGD-His6; also: GST tag, end not given here)”, for which the “shift of the MP peak upon addition of p300TAZ2” value with p300TAZ2 (20 nM GST-EZH2TAD1, 0.1 μM p300TAZ2) is given as ~ 14 kDa. The “oligomeric state in the apo-state” value in the assay with p300TAZ2 (20 nM GST-EZH2TAD1 alone) was “formed a dimer in the apo-state”. Further, in the assay with p300TAZ2 (20 nM GST-EZH2TAD1 alone, room temperature, 50 mM Tris pH 7.5, 150 mM NaCl, 5 mM DTT), the “MP peak, apo GST-EZH2TAD1” value is ~ 70 kDa. In addition, in the assay with p300TAZ2 (20 nM GST-EZH2TAD1 with 0.1 μM p300TAZ2), the “oligomeric state / stoichiometry of GST-EZH2TAD1 complexes” value was “dimeric GST-EZH2TAD1 bound by one molecule of p300TAZ2 and by two molecules of p300TAZ2”. The substance NDEIFVELVNALGQYNDDD [EZH2TAD2] yielded a Kd in assay [1] of 310 nM.

With SDKIFEAISSMF [EZH2TAD3], in assay [1], the affinity, expressed as Kd, was 520 ± 60 nM.

The record behind these values is article PMC12312386, “Multiple transactivation domains of EZH2 bind to the TAZ2 domain of p300 and stimulate the acetyltransferase function of p300” (Biochemical Journal, 2025).
